These results are taken from US12116358B2, “Substituted indoles and methods of use thereof” (EPIZYME, INC., priority 2018, dated 2024).

The subject of one experiment is H3K36me3 in A549 cells. Briefly: In-Cell Western (ICW) assay of SETD2 inhibitors (A549 assay). The class given is cell-based, human. Conditions: A549 cells, read-out: SETD2 A549. The gist of the method: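 H3K36me3 In-Cell Western: cells exposed to compound for 3 days at 4,000 cells/well, 37° C. DRAQ5 (1:1000) marked cell number, with 700/800-channel Licor read-out.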

A further experiment concerns the target T1, SETD2(1434-1711) (Homo sapiens, UniProt Q9BYW2).
T1 construct: SETD2 (1434-1711) Assay; catalogue N/A
T1 sequence (Q9BYW2 1434-1711): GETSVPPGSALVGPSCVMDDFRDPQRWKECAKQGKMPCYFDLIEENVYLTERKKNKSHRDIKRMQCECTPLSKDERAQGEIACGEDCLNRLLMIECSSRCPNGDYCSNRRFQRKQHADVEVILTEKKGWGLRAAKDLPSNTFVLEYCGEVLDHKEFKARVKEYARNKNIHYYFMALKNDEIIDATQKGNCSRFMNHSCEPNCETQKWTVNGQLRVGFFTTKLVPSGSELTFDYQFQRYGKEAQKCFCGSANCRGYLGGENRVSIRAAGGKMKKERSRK
Briefly: SETD2 (1434-1711) assay. The class given is biochemical. Conditions: read-out: SETD2 (1434-1711).

pIC50: −log10 of the molar value. Read-outs that look alike come from different tables or passages of the source.

For `Cc1ccc(F)c2cc(C(=O)Nc3cccc(-c4cnn5ccccc45)c3)[nH]c12` [compound 290], the figures for the pIC50 with H3K36me3 in A549 cells (Homo sapiens) and on SETD2(1434-1711) were 5.96 and 6.40, respectively.
As to `Cc1ccc(F)c2cc(C(=O)Nc3cccc(N4C5CCC4COC5)c3)[nH]c12` [compound 291], the values for the pIC50 with H3K36me3 in A549 cells (Homo sapiens) and on SETD2(1434-1711) were 5.96 and 6.52, respectively.
On to `CC(=O)N1CC2CC1CN2c1cccc(NC(=O)c2cc3c(F)ccc(C)c3[nH]2)c1` (stereo not shown) [compound 292], for which the pIC50 is 5.96 in the experiment on H3K36me3 in A549 cells and 6.15 on SETD2(1434-1711).
Regarding `CNC(=O)CCc1cccc(NC(=O)c2cc3c(F)ccc(C)c3[nH]2)c1` [compound 293], the values for the pIC50 in the experiment with H3K36me3 in A549 cells (Homo sapiens) and at SETD2(1434-1711) were 5.96 and 6.40, respectively.
Regarding `Cc1ccc(F)c2cc(C(=O)Nc3cccc(C4CCC5C(CCN5C)C4)c3)[nH]c12` (stereo not shown) [compound 294], the pIC50 was 5.96 in the experiment on H3K36me3 in A549 cells (Homo sapiens) and 7.52 at SETD2(1434-1711).
The like results for `CC(=O)N1CCN(c2nccc(NC(=O)c3cc4c(F)ccc(C)c4[nH]3)n2)CC1` [compound 295] were, in that order, 5.96 and 6.52.
`Cc1ccc(F)c2cc(C(=O)Nc3cccc(-c4ncno4)c3)[nH]c12` [compound 296]: the figures for the pIC50 with H3K36me3 in A549 cells (Homo sapiens) and at SETD2(1434-1711) were 5.96 and 7.00, respectively.
The like results for `Cc1ccc(F)c2cc(C(=O)Nc3cccc(N4CCCCC4)c3)[nH]c12` [compound 297] were, in that order, 5.96 and 7.00.
`CC(=O)N1[C@@H](C)CN(c2cccc(NC(=O)c3cc4c(F)ccc(C)c4[nH]3)c2)C[C@@H]1C` [compound 298]: the results for the pIC50 in the experiment on H3K36me3 in A549 cells (Homo sapiens) and on SETD2(1434-1711) were 5.96 and 6.52, respectively.
On the same counts, the results for `Cc1ccc(F)c2cc(C(=O)Nc3cccc(-c4ncn5ccccc45)c3)[nH]c12` [compound 299] are 5.96 and 6.70.
On the same counts, the results for `Cc1ccc(F)c2cc(C(=O)Nc3cccc(CC(N)=O)c3)[nH]c12` [compound 300] are 5.92 and 6.70.
As for `Cc1ccc(F)c2cc(C(=O)Nc3cccc(N4CC[C@@H](N(C)C)[C@@H](F)C4)c3)[nH]c12` [compound 301], the results for the pIC50 in the experiment on H3K36me3 in A549 cells (Homo sapiens) and at SETD2(1434-1711) were 5.92 and 7.00, respectively.
On the same counts, the results for `Cc1ccc(F)c2cc(C(=O)Nc3cccc([C@@H]4CC[C@H](N(C)C)C4)c3)[nH]c12` [compound 302] are 5.92 and 7.52.
The like results for `Cc1ccc(F)c2cc(C(=O)Nc3cccc(N4CC[C@@H](N(C)C)C[C@@H]4C)c3)[nH]c12` [compound 303] were, in that order, 5.92 and 7.22.
As to `Cc1ccc(F)c2cc(C(=O)Nc3cccc(-c4ncn[nH]4)c3)[nH]c12` [compound 304], the pIC50 in the experiment on H3K36me3 in A549 cells is 5.92; on SETD2(1434-1711), 6.52.
Regarding `CC(=O)N(C)C1CCCN(C2COCC(NC(=O)c3cc4c(F)ccc(C)c4[nH]3)C2)C1` (stereo not shown) [compound 305], the results for the pIC50 with H3K36me3 in A549 cells (Homo sapiens) and at SETD2(1434-1711) were 5.92 and 6.30, respectively.
As for `Cc1ccc(F)c2cc(C(=O)Nc3cccc(N4CCOCC4C4CC4)c3)[nH]c12` (stereo not shown) [compound 306], the pIC50 in the experiment with H3K36me3 in A549 cells (Homo sapiens) was 5.92; at SETD2(1434-1711) it was 6.40.
Regarding `Cc1ccc(F)c2cc(C(=O)Nc3cccc(C4COCCN4)c3)[nH]c12` (stereo not shown) [compound 307], the pIC50 in the experiment with H3K36me3 in A549 cells (Homo sapiens) was 5.92; on SETD2(1434-1711), 6.70.
On the same counts, the results for `Cc1ccc(F)c2cc(C(=O)Nc3cccc(N4CC[C@@H](N(C)C)C[C@H]4C)c3)[nH]c12` [compound 308] are 5.89 and 7.00.
The like results for `Cc1cc(Cn2ccnc2)cnc1C(NC(=O)c1cc2cccc(C)c2[nH]1)C1CC1` (stereo not shown) [compound 309] were, in that order, 5.89 and 6.70.
For `Cc1ccc(F)c2cc(C(=O)Nc3cccc(N4CCCC(N)C4)c3)[nH]c12` (stereo not shown) [compound 310], the pIC50 was 5.89 in the experiment on H3K36me3 in A549 cells (Homo sapiens) and 7.30 on SETD2(1434-1711).
The like results for `Cc1ccc(F)c2cc(C(=O)Nc3cc(C(F)F)cc(N4CCC(N(C)C)CC4)c3)[nH]c12` [compound 311] were, in that order, 5.89 and 7.52.
Take `Cc1ccc(F)c2cc(C(=O)Nc3cccc(N4CCN(c5ccccc5)CC4)c3)[nH]c12` [compound 312]: the figures for the pIC50 in the experiment on H3K36me3 in A549 cells (Homo sapiens) and on SETD2(1434-1711) were 5.89 and 6.10, respectively.
On the same counts, the results for `Cc1ccc(F)c2cc(C(=O)Nc3cc(F)cc([C@H]4CC[C@H](N(C)C)CC4)c3)[nH]c12` [compound 313] are 5.89 and 7.52.
The like results for `Cc1ccc(F)c2cc(C(=O)Nc3cccc(NC(=O)C4CCCN4)c3)[nH]c12` (stereo not shown) [compound 314] were, in that order, 5.89 and 7.40.
On the same counts, the results for `Cc1ccc(F)c2cc(C(=O)Nc3cccc(C(C)(C)O)c3)[nH]c12` [compound 315] are 5.85 and 6.22.
For `Cc1ccc(F)c2cc(C(=O)Nc3cccc(-c4ncccn4)c3)[nH]c12` [compound 316], the pIC50 was 5.85 with H3K36me3 in A549 cells (Homo sapiens) and 7.00 at SETD2(1434-1711).
On the same counts, the results for `Cc1cn(Cc2cnc(C(NC(=O)c3cc4c(F)ccc(C)c4[nH]3)C3CC3)c(C)c2)c(C)n1` (stereo not shown) [compound 317] are 5.85 and 7.00.
On the same counts, the results for `Cc1ccc(F)c2cc(C(=O)Nc3cccc(N4CCN(C)CC4C)c3)[nH]c12` (stereo not shown) [compound 318] are 5.85 and 6.70.
The like results for `Cc1ccc(F)c2cc(C(=O)Nc3cccc(-c4nnc(N)o4)c3)[nH]c12` [compound 319] were, in that order, 5.85 and 7.00.
As to `Cc1c(NC(=O)c2cc3c(F)ccc(C)c3[nH]2)cccc1N1CCN(C)CC1` [compound 320], the results for the pIC50 in the experiment with H3K36me3 in A549 cells (Homo sapiens) and at SETD2(1434-1711) were 5.85 and 6.70, respectively.
For the molecule `Cc1ccc(F)c2cc(C(=O)Nc3cccc(N4CCNCC4=O)c3)[nH]c12` [compound 321], the pIC50 with H3K36me3 in A549 cells (Homo sapiens) is 5.82; at SETD2(1434-1711), 6.70.
On the same counts, the results for `Cc1ccc(F)c2cc(C(=O)Nc3cccc(-c4ccn[nH]4)c3)[nH]c12` [compound 322] are 5.82 and 6.30.
The like results for `Cc1ccc(F)c2cc(C(=O)Nc3cccc(OCCN(C)C)c3)[nH]c12` [compound 323] were, in that order, 5.82 and 7.15.
`Cc1ccc(F)c2cc(C(=O)Nc3cccc([C@H]4CC[C@@H](N(C)C)C4)c3)[nH]c12` [compound 324]: the pIC50 was 5.82 in the experiment with H3K36me3 in A549 cells (Homo sapiens) and 7.30 on SETD2(1434-1711).
The like results for `Cc1ccc(F)c2cc(C(=O)Nc3cccc(N(C)C4CCNCC4)c3)[nH]c12` [compound 325] were, in that order, 5.82 and 7.15.
The like results for `CNc1cccc(-c2cccc(NC(=O)c3cc4c(F)ccc(C)c4[nH]3)c2)n1` [compound 326] were, in that order, 5.80 and 6.70.
For `Cc1ccc(F)c2cc(C(=O)NC3C(=O)NCCc4ccccc43)[nH]c12` (stereo not shown) [compound 327], the results for the pIC50 in the experiment on H3K36me3 in A549 cells and on SETD2(1434-1711) were 5.80 and 6.30, respectively.
With `Cc1ccc(F)c2cc(C(=O)Nc3cccc(N4CCn5cnnc5C4)c3)[nH]c12` [compound 328], the results for the pIC50 in the experiment with H3K36me3 in A549 cells (Homo sapiens) and on SETD2(1434-1711) were 5.80 and 7.40, respectively.
For `Cc1ccc(F)c2cc(C(=O)Nc3cccc(C(=O)N(C)C)c3)[nH]c12` [compound 329], the pIC50 is 5.80 with H3K36me3 in A549 cells (Homo sapiens) and 6.22 at SETD2(1434-1711).
For `Cc1ccc(F)c2cc(C(=O)Nc3cccc(NC4CCN(C)C4)c3)[nH]c12` (stereo not shown) [compound 330], the pIC50 in the experiment with H3K36me3 in A549 cells (Homo sapiens) is 5.80; at SETD2(1434-1711) it was 7.15.
